# Results from US11484539B2, “Compounds and their uses for alleviating menopause-associated symptoms” (Estetra SPRL, priority 2018, dated 2022).
# Test system: post-menopausal women
# Assay: Weekly frequency of moderate to severe VMS, dose-finding study
# Assay type: in vivo
# Details: for Difference with placebo, LS adjusted mean, absolute change in weekly frequency of moderate to severe VMS / Difference with placebo, LS adjusted mean, relative change in weekly frequency of moderate to severe VMS: 10 mg E4 vs placebo; for Differences with placebo (including ineffective doses 2.5 mg and 5 mg), relative change in weekly frequency of moderate to severe VMS, LS adjusted mean / Differences with placebo (including ineffective doses 2.5 mg and 5 mg), relative change in weekly frequency of moderate to severe VMS, p_value: 10.0 mg vs 0 mg; for Relative change in weekly frequency of moderate to severe VMS, LS adjusted mean: analysis with placebo grouped with 2.5 and 5 mg; for LS adjusted mean change from baseline in weekly frequency of moderate to severe VMS / LS adjusted mean relative change (%) from baseline in weekly frequency of moderate to severe VMS: 15 mg E4
# Description: To determine the Minimum Effective Dose (MED), firstly the selection criteria required that patients presented at least 7 moderate to severe VMS/day or at least 50 moderate to severe VMS/week in the week preceding randomization. Secondly, a placebo group was included in a double-blind fashion. Thirdly, the total patient number was such that statistical significance could be obtained between separate arms of the study. Fourthly, the absolute change from baseline in weekly frequency of moderate to severe VMS was taken into account. An analysis of covariance (ANCOVA) was performed based on the untransformed change in weekly frequency of moderate to severe VMS from baseline. Finally, the change in severity from baseline was evaluated. For this, the Severity Scoring System of VMS was documented by the subjects as follows: • a score of Mild (1) for a sensation of heat without sweating; • a score of Moderate (2) for a sensation of heat with sweating/the subject is able to continue activity; and • a score of Severe (3) for a sensation of heat with sweating/which causes cessation of activity.
# Enrolment was approximately 18 months. Individual subject participation was up to 27 weeks: up to 6 weeks pre-screening and washout, up to 4 weeks screening and run-in period, up to 91 days (13 weeks) of E4/placebo treatment followed by 2 weeks (14 days) of progestin therapy and a Follow up visit 1 week after completion of progestin therapy in non-hysterectomised subjects only.
# To define the minimum effective dose (MED) of the oral dose of E4 by evaluating changes in frequency and in severity of moderate to severe vasomotor symptoms (VMS).
# This was a prospective, multicentre, randomised, placebo-controlled, double-blinded, dose-finding study.
# Eligible subjects were hysterectomised and non-hysterectomised post-menopausal women aged 40 to 65 years, inclusive, presenting at least 7 moderate to severe hot flushes/day or at least 50 moderate to severe hot flushes/week.
# The subjects have met all of the following inclusion criteria at the randomization visit. These criteria were assessed during the screening period: • 1. Women aged 40 to 65 years, inclusive, presenting at least 7 moderate to severe hot flushes/day or at least 50 moderate to severe hot flushes/week in the week preceding randomization. • 2. Body Mass Index (BMI) between 18.0 and 35.0 kg/m^2, inclusive. • 3. Post-menopausal status defined as levels of follicle stimulating hormone (FSH) >40 IU/L and: • amenorrhoea for at least 12 consecutive months or, • amenorrhoea for at least 6 months with estradiol (E2)<20 pg/mL or, • at least 6 weeks post-surgical bilateral oophorectomy with or without hysterectomy with a copy of the pathology report or a statement on letterhead from the subject's physician documenting both ovaries were removed is required. • 4. For non-hysterectomised women: intact uterus with bi-layer endometrial thickness […] on TVUS. • 5. Negative pregnancy test. • 6. Good physical and mental health, in the judgement of the Principal Investigator (PI), on the basis of medical, surgical and gynaecological history, physical examination, gynaecological examination, clinical laboratory, and vital signs. • 7. Subject has provided signed and dated written informed consent before admission to the study. • 8. Subject is able to understand and comply with the protocol requirements, instructions, and protocol-stated restrictions. Exclusion Criteria:
# All treatments (Estetrol, hereinafter, E4, [2.5 mg, 5 mg, 10 mg, 15 mg] capsule) were administered once daily (QD) per os for at least 12 consecutive weeks until the last biological assessments (Day 91 maximum) had been performed.
# In order to analyse the data recorded in this study, treatment groups have been compared using an ANCOVA (analysis of covariance) with respect to the change in weekly frequency of moderate to severe VMS from baseline to weeks 4 and 12. […]
# [1] = week 4, ANCOVA with study centre
# [2] = week 12, ANCOVA with study centre
smiles,measurement,setting,value
"C[C@]12CC[C@@H]3c4ccc(O)cc4CC[C@H]3[C@@H]1[C@@H](O)[C@@H](O)[C@@H]2O [E4, 1,3,5 (10)-estratrien-3,15alpha,16alpha,17beta-tetrol]",Mean change from baseline in weekly frequency of moderate to severe VMS,"10 mg E4 QD per os, week 8",−44.46
same,"Relative change (% from baseline) in weekly frequency of moderate to severe VMS, mean","10 mg E4 QD per os, week 8",−68%
same,Mean change from baseline in weekly frequency of moderate to severe VMS,"10 mg E4 QD per os, week 9",−45.19
same,"Relative change (% from baseline) in weekly frequency of moderate to severe VMS, mean","10 mg E4 QD per os, week 9",−69%
same,Mean change from baseline in weekly frequency of moderate to severe VMS,"10 mg E4 QD per os, week 10",−45.93
same,"Relative change (% from baseline) in weekly frequency of moderate to severe VMS, mean","10 mg E4 QD per os, week 10",−70%
same,Mean change from baseline in weekly frequency of moderate to severe VMS,"10 mg E4 QD per os, week 11",−45.90
same,"Relative change (% from baseline) in weekly frequency of moderate to severe VMS, mean","10 mg E4 QD per os, week 11",−70%
same,Mean change from baseline in weekly frequency of moderate to severe VMS,"10 mg E4 QD per os, week 12",−47.21
same,"Relative change (% from baseline) in weekly frequency of moderate to severe VMS, mean","10 mg E4 QD per os, week 12",−72%
same,"Difference with placebo, LS adjusted mean, absolute change in weekly frequency of moderate to severe VMS",[1],−1.571
same,"Difference with placebo, LS adjusted mean, relative change in weekly frequency of moderate to severe VMS",[1],−0.05376
same,"Difference with placebo, LS adjusted mean, absolute change in weekly frequency of moderate to severe VMS","week 4, without site effect",−2.222
same,"Difference with placebo, LS adjusted mean, relative change in weekly frequency of moderate to severe VMS","week 4, without site effect",−0.06517
same,"Difference with placebo, LS adjusted mean, absolute change in weekly frequency of moderate to severe VMS",[2],−2.103
same,"Difference with placebo, LS adjusted mean, relative change in weekly frequency of moderate to severe VMS",[2],−0.05804
same,"Difference with placebo, LS adjusted mean, absolute change in weekly frequency of moderate to severe VMS","week 12, without site effect",−2.603
same,"Difference with placebo, LS adjusted mean, relative change in weekly frequency of moderate to severe VMS","week 12, without site effect",−0.06624
same,"Differences with placebo (including ineffective doses 2.5 mg and 5 mg), relative change in weekly frequency of moderate to severe VMS, LS adjusted mean",week 4,−0.07645
same,"Differences with placebo (including ineffective doses 2.5 mg and 5 mg), relative change in weekly frequency of moderate to severe VMS, p_value",week 4,0.2615
same,"Differences with placebo (including ineffective doses 2.5 mg and 5 mg), relative change in weekly frequency of moderate to severe VMS, LS adjusted mean",week 12,−0.08276
same,"Differences with placebo (including ineffective doses 2.5 mg and 5 mg), relative change in weekly frequency of moderate to severe VMS, p_value",week 12,0.1798
same,"Relative change (% from baseline) in weekly frequency of moderate to severe VMS, mean","10 mg, Week 12",−72%
same,"Relative change (% from baseline) in weekly frequency of moderate to severe VMS, mean","10 mg, week 0",0%
same,"Relative change (% from baseline) in weekly frequency of moderate to severe VMS, mean","10 mg, week 1",−21%
same,"Relative change (% from baseline) in weekly frequency of moderate to severe VMS, mean","10 mg, week 2",−37%
same,"Relative change (% from baseline) in weekly frequency of moderate to severe VMS, mean","10 mg, week 3",−48%
same,"Relative change (% from baseline) in weekly frequency of moderate to severe VMS, mean","10 mg, week 4",−55%
same,"Relative change in weekly frequency of moderate to severe VMS, LS adjusted mean","10 mg, week 4",−0.5442
same,"Relative change (% from baseline) in weekly frequency of moderate to severe VMS, mean","10 mg, week 5",−60%
same,"Relative change (% from baseline) in weekly frequency of moderate to severe VMS, mean","10 mg, week 6",−65%
same,"Relative change (% from baseline) in weekly frequency of moderate to severe VMS, mean","10 mg, week 7",−66%
same,"Relative change (% from baseline) in weekly frequency of moderate to severe VMS, mean","10 mg, week 8",−68%
same,"Relative change (% from baseline) in weekly frequency of moderate to severe VMS, mean","10 mg, week 9",−69%
same,"Relative change (% from baseline) in weekly frequency of moderate to severe VMS, mean","10 mg, week 10",−70%
same,"Relative change (% from baseline) in weekly frequency of moderate to severe VMS, mean","10 mg, week 11",−70%
same,"Relative change in weekly frequency of moderate to severe VMS, LS adjusted mean","10 mg, week 12",−0.7008
same,LS adjusted mean change from baseline in weekly frequency of moderate to severe VMS,[1],−43.6
same,LS adjusted mean relative change (%) from baseline in weekly frequency of moderate to severe VMS,[1],-64.7%
same,LS adjusted mean change from baseline in weekly frequency of moderate to severe VMS,"week 4, without site effect",−44.36
same,LS adjusted mean relative change (%) from baseline in weekly frequency of moderate to severe VMS,"week 4, without site effect",-66%
same,LS adjusted mean change from baseline in weekly frequency of moderate to severe VMS,[2],−53.83
same,LS adjusted mean relative change (%) from baseline in weekly frequency of moderate to severe VMS,[2],-80.1%
same,LS adjusted mean change from baseline in weekly frequency of moderate to severe VMS,"week 12, without site effect",−54.91
same,LS adjusted mean relative change (%) from baseline in weekly frequency of moderate to severe VMS,"week 12, without site effect",-82.3%
same,Mean change from baseline in weekly frequency of moderate to severe VMS,"15 mg E4 QD per os, week 1",−14.86
same,"Relative change (% from baseline) in weekly frequency of moderate to severe VMS, mean","15 mg E4 QD per os, week 1",−22%
same,Mean change from baseline in weekly frequency of moderate to severe VMS,"15 mg E4 QD per os, week 2",−29.19
same,"Relative change (% from baseline) in weekly frequency of moderate to severe VMS, mean","15 mg E4 QD per os, week 2",−46%
same,Mean change from baseline in weekly frequency of moderate to severe VMS,"15 mg E4 QD per os, week 3",−36.30
same,"Relative change (% from baseline) in weekly frequency of moderate to severe VMS, mean","15 mg E4 QD per os, week 3",−57%
